Source: patent US10882837B2, “Amide compounds and use thereof” (ALPHALA CO., LTD., priority 2017, dated 2021)

Legend:
[1] = target: T1, glucagon receptor (GCGR) (Homo sapiens, UniProt P47871); assay: Glucagon cAMP inhibition assay (Cisbio cAMP Dynamic 2 HTRF); assay type: cell-based; details: GCGR overexpressed CHO-K1 cells or human primary hepatocytes (not specified); glucagon at EC50
T1 construct: expressed in transfected cells; host or cells: CHO-K1
Experimental: Glucagon eAMP Inhibition Assay
Downstream secondary messenger eAMP induced by glucagon was detected by Cisbio cAMP Dynamic 2 kit. Testing compounds were each prepared as a dimethyl sulfoxide (DMSO) solution at the concentration of 10 mM. To evaluate the potency of compounds in inhibiting the cAMP production, glucagon receptor (GCGR) overexpressed CHO-K1 cells or human primary hepatocytes were treated with compounds with a serial dilution. The cells were re-suspended in Hank's Balanced Salt solution (HBSS) contained 0.1% (w/v) bovine serum albumin and 800 nM 3-isobutyl-1-methylxanthine (IBMX) and seeded into low volume, 384 wells white plate. The diluted compounds were then added into the plate for 30 minutes pre-incubation where the final DMSO concentration was 1%. The cells were stimulated with glucagon at the concentration equaled to EC50 (an indicium of the concentration of a drag that gives half-maximal response) for 30 minutes at room temperature. After incubation, lysis buffer contain cAMP antibody and fluorescence acceptor were added into each well for additional 60 minutes incubation. Results were recorded by Molecular Devices SpectraMax Paradigm with the HTRF Detection Cartridges and the IC50 value of each compound in inhibiting the cAMP production was calculated with non-linear regression based on the amount of cAMP production.

[2] = target: GCGR (Homo sapiens, UniProt P47871); assay: I125-glucagon binding assay (competition, GCGR membrane fractions); design: expressed in transfected cells; host or cells: CHO-K1; details: for IC50: competition with I125-glucagon 0.0625 nM, membrane fractions from GCGR overexpressed CHO-K1 cells; for inhibition at 30 µM: compound at 30 μM, read-out: percentage of inhibition (number in parenthesis in IC50 binding column)
Chain of GCGR (P47871 26-477, species assumed): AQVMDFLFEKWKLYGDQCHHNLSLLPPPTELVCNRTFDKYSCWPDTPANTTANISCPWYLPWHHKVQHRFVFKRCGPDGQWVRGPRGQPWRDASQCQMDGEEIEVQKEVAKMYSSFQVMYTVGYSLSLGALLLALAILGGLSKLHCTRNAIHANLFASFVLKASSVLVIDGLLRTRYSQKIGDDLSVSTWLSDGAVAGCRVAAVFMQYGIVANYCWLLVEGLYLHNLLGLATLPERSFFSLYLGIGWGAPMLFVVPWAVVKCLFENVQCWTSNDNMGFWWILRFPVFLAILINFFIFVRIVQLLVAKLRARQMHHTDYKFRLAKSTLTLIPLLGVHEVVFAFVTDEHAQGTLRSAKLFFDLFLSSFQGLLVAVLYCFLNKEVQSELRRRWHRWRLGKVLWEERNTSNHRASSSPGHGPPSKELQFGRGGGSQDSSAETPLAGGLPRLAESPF
Experimental: I^125-Glucagon Binding Assay
The binding affinity of each compound was evaluated by a competition assay with I^125-glucagon. GCGR membrane fractions were obtained from GCGR overexpressed CHO-K1 cells as a stock of 1 mg/ml concentration. To evaluate the IC50 of compounds binding to GCGR, GCGR membrane fractions were treated with compounds with a serial dilution. The membrane fractions were diluted to 7.5 microgram per well in 70 microliter assay buffer contained 50 mM Tris pH 7.4 and 0.5% (w/v) bovine serum albumin and added into 96 wells plate. The membrane fractions were then mixed with 10 microliter diluted compounds. After 5 minutes pre-incubation, 20 microliter I^125 labeled glucagon (Perkin Elmer) was added into each well at the final concentration of 0.0625 nM. The assay mixtures were incubated at 25° C. for 30 minutes and then transferred onto the Millipore Multiscreen GF/B Plate coated with 0.5% (w/v) Polyethyleneimine. The filter plate was washed with wash buffer contained 50 mM Tris pH 7.4 for 2 times, 300 microliter each time. The residual isotope was detected by Hidex CHAMELEON V micro-beta counter and the IC50 value of each compound binding to GCGR was calculated with non-linear regression.

T1 sequence (P47871 26-477, species assumed): as above

IC50 [1] [nM]	IC50 [2] [nM]	inhibition at 30 µM [2] [%]	Structure (SMILES)
> 30000	2500	–	CC(C)[C@H](Nc1ccc(C(=O)NCCC(=O)O)cc1)c1ccc(-c2nnc(C(F)(F)F)o2)cc1 (racemic) [Compound 1-57, (RS)-3-(4-((2-methyl-1-(4-(5-(trifluoromethyl)-1,3,4-oxadiazol-2-yl)phenyl)propyl)amino)benzamido)propanoic acid]
4690	27	–	CC(C)C(Nc1ccc(C(=O)NCCC(=O)O)cc1)c1ccc(-c2nnc(-c3ccccc3)o2)cc1 (stereo not shown) [Compound 1-1, 3-(4-((2-Methyl-1-(4-(5-phenyl-1,3,4-oxadiazol-2-yl)phenyl)propyl)amino)benzamido)propanoic acid]
113	1220	–	COC(=O)CCNC(=O)c1ccc(NC(c2ccc(-c3nnc(-c4ccccc4)o3)cc2)C(C)C)cc1 (stereo not shown) [Compound 1-2, Methyl 3-(4-((2-methyl-1-(4-(5-phenyl-1,3,4-oxadiazol-2-yl)phenyl)propyl)amino)benzamido)propanoate]
55	1870	43	CCOC(=O)CCNC(=O)c1ccc(NC(c2ccc(-c3nnc(-c4ccccc4)o3)cc2)C(C)C)cc1 (stereo not shown) [Compound 1-3, Ethyl 3-(4-((2-methyl-1-(4-(5-phenyl-1,3,4-oxadiazol-2-yl)phenyl)propyl)amino)benzamido)propanoate]
> 30000	433	–	CC(C)C(Nc1ccc(C(=O)NCCC(=O)O)cc1)c1ccc(-c2nnc(C(F)(F)F)o2)cc1 (stereo not shown) [Compound 1-4, 3-(4-((2-Methyl-1-(4-(5-(trifluoromethyl)-1,3,4-oxadiazol-2-yl)phenyl)propyl)amino)benzamido)propanoic acid]
4130	175	–	CC(C)CC(Nc1ccc(C(=O)NCCC(=O)O)cc1)c1ccc(-c2nnc(-c3ccccc3)o2)cc1 (stereo not shown) [Compound 1-5, 3-(4-((3-Methyl-1-(4-(5-phenyl-1,3,4-oxadiazol-2-yl)phenyl)butyl)amino)benzamido)propanoic acid]
31	2610	–	CCCC(Nc1ccc(C(=O)NCCC(=O)OCC)cc1)c1ccc(-c2nnc(-c3ccccc3)o2)cc1 (stereo not shown) [Compound 1-6, Ethyl 3-(4-((1-(4-(5-phenyl-1,3,4-oxadiazol-2-yl)phenyl)butyl)amino)benzamido)propanoate]
3330	211	–	CCCC(Nc1ccc(C(=O)NCCC(=O)O)cc1)c1ccc(-c2nnc(-c3ccccc3)o2)cc1 (stereo not shown) [Compound 1-7]
> 30000	651	–	CCCC(Nc1ccc(C(=O)NCCC(=O)O)cc1)c1ccc(-c2nnc(C(F)(F)F)o2)cc1 (stereo not shown) [Compound 1-8, 3-(4-((1-(4-(5-(Trifluoromethyl)-1,3,4-oxadiazol-2-yl)phenyl)butyl)amino)benzamido)propanoic acid]
17100	956	–	CC(C)CC(Nc1ccc(C(=O)NCCC(=O)O)cc1)c1ccc(-c2nnc(C(F)(F)F)o2)cc1 (stereo not shown) [Compound 1-9, 3-(4-((3-Methyl-1-(4-(5-(trifluoromethyl)-1,3,4-oxadiazol-2-yl)phenyl)butyl)amino)benzamido)propanoic acid]
25	1870	34	CCOC(=O)CCNC(=O)c1ccc(NC(c2ccc(-c3nnc(-c4ccccc4)o3)cc2)C(C)CC)cc1 (stereo not shown) [Compound 1-10, Ethyl 3-(4-((2-methyl-1-(4-(5-phenyl-1,3,4-oxadiazol-2-yl)phenyl)butyl)amino)benzamido)propanoate]
2540	72	–	CCC(C)C(Nc1ccc(C(=O)NCCC(=O)O)cc1)c1ccc(-c2nnc(-c3ccccc3)o2)cc1 (stereo not shown) [Compound 1-11, 3-(4-((2-Methyl-1-(4-(5-phenyl-1,3,4-oxadiazol-2-yl)phenyl)butyl)amino)benzamido)propanoic acid]
6710	455	–	CC(C)CC(Nc1ccc(C(=O)NCCC(=O)O)cc1)c1ccc(-c2nnc(C(C)(C)C)o2)cc1 (stereo not shown) [Compound 1-12]
> 30000	314	–	CCCCC(Nc1ccc(C(=O)NCCS(=O)(=O)O)cc1)c1ccc(-c2nnc(-c3ccccc3)o2)cc1 (stereo not shown) [Compound 1-13, 2-(4-((1-(4-(5-phenyl-1,3,4-oxadiazol-2-yl)phenyl)pentyl)amino)benzamido)ethane-1-sulfonic acid]
3450	379	–	CCCCC(Nc1ccc(C(=O)NCCC(=O)O)cc1)c1ccc(-c2nnc(C(F)(F)F)o2)cc1 (stereo not shown) [Compound 1-14, 3-(4-((1-(4-(5-(trifluoromethyl)-1,3,4-oxadiazol-2-yl)phenyl)pentyl)amino)benzamido)propanoic acid]
306	578	–	CCCCC(Nc1ccc(C(=O)NCCC(=O)OCC)cc1)c1ccc(-c2nnc(-c3ccccn3)o2)cc1 (stereo not shown) [Compound 1-15]
15700	203	–	CCCCC(Nc1ccc(C(=O)NCCC(=O)O)cc1)c1ccc(-c2nnc(-c3ccccn3)o2)cc1 (stereo not shown) [Compound 1-16, 3-(4-((1-(4-(5-(Pyridin-2-yl)-1,3,4-oxadiazol-2-yl)phenyl)pentyl)amino)benzamido)propanoic acid]
322	3510	53	CCOC(=O)CCNC(=O)c1ccc(NC(c2ccc(-c3nnc(-c4ccc(F)cc4)o3)cc2)C(C)C)cc1 (stereo not shown) [Compound 1-17]
4350	122	–	CC(C)C(Nc1ccc(C(=O)NCCC(=O)O)cc1)c1ccc(-c2nnc(-c3ccc(F)cc3)o2)cc1 (stereo not shown) [Compound 1-18, 3-(4-((1-(4-(5-(4-Fluorophenyl)-1,3,4-oxadiazol-2-yl)phenyl)-2-methylpropyl)amino)benzamido)propanoic acid]
203	4410	–	CCCCC(Nc1ccc(C(=O)NCCC(=O)OCC)cc1)c1ccc(-c2nnc(C(C)(C)C)o2)cc1 (stereo not shown) [Compound 1-19, Ethyl 3-(4-((1-(4-(5-(tert-butyl)-1,3,4-oxadiazol-2-yl)phenyl)pentyl)amino)benzamido)propanoate]
15200	562	–	CCCCC(Nc1ccc(C(=O)NCCC(=O)O)cc1)c1ccc(-c2nnc(C(C)(C)C)o2)cc1 (stereo not shown) [Compound 1-20, 3-(4-((1-(4-(5-(tert-butyl)-1,3,4-oxadiazol-2-yl)phenyl)pentyl)amino)benzamido)propanoic acid]
126	3310	–	CCOC(=O)CCNC(=O)c1ccc(NC(c2ccc(-c3nnc(C(C)(C)C)o3)cc2)C(C)CC)cc1 (stereo not shown) [Compound 1-21, Ethyl 3-(4-((1-(4-(5-(tert-butyl)-1,3,4-oxadiazol-2-yl)phenyl)-2-methylbutyl)amino)benzamido)propanoate]
10300	246	–	CCC(C)C(Nc1ccc(C(=O)NCCC(=O)O)cc1)c1ccc(-c2nnc(C(C)(C)C)o2)cc1 (stereo not shown) [Compound 1-22, 3-(4-((1-(4-(5-(tert-butyl)-1,3,4-oxadiazol-2-yl)phenyl)-2-methylbutyl)amino)benzamido)propanoic acid]
180	18700	–	CCOC(=O)CCNC(=O)c1ccc(NC(c2ccc(-c3nnc(C(C)(C)C)o3)cc2)C(C)C)cc1 (stereo not shown) [Compound 1-23]
> 30000	314	–	CC(C)C(Nc1ccc(C(=O)NCCC(=O)O)cc1)c1ccc(-c2nnc(C(C)(C)C)o2)cc1 (stereo not shown) [Compound 1-24, 3-(4-((1-(4-(5-(tert-butyl)-1,3,4-oxadiazol-2-yl)phenyl)-2-methylpropyl)amino)benzamido)propanoic acid]
284	> 30000	–	CCOC(=O)CCNC(=O)c1ccc(NC(c2ccc(-c3nnc(-c4ccc(OC)cc4)o3)cc2)C(C)C)cc1 (stereo not drawn) [Compound 1-25, ethyl 3-(4-((l-(4-(5-(4-methoxyphenyl)-1,3,4-oxadiazol-2-yl)phenyl)-2-methylpropyl)amino)benzamido)propanoate]
4380	198	–	COc1ccc(-c2nnc(-c3ccc(C(Nc4ccc(C(=O)NCCC(=O)O)cc4)C(C)C)cc3)o2)cc1 (stereo not shown) [Compound 1-26, 3-(4-((1-(4-(5-(4-methoxyphenyl)-1,3,4-oxadiazol-2-yl)phenyl)-2-methylpropyl)amino)benzamido)propanoic acid]
–	> 30000	–	CCCC[C@H](Nc1ccc(C(=O)NCCC(=O)O)cc1)c1ccc(-c2noc(-c3ccccc3)n2)cc1 [Compound 2-34, (S)-3-(4-((1-(4-(5-phenyl-1,2,4-oxadiazol-3-yl)phenyl)pentyl)amino)benzamido)propanoic acid]
